Laboratory results taken from ChEMBL document CHEMBL4715855, “N-phenyl ureidobenzenesulfonates, a novel class of promising human dihydroorotate dehydrogenase inhibitors” (Bioorg Med Chem, 2020).

What was measured:
Format in all cases: functional, cell-based
[1] = test system: Panel leukemia (Carcinoma cell lines); assay: Antiproliferative activity against human Panel leukemia (Carcinoma cell lines) assessed as cell growth inhibition measured after 48 hrs by SRB assay
HOP-62 = assay: Antiproliferative activity against human HOP-62 cells assessed as cell growth inhibition measured after 48 hrs by sulforhodamine B assay; details: HOP-62, 48 h
COLO 205 = assay: Antiproliferative activity against human COLO 205 cells assessed as cell growth inhibition measured after 48 hrs by sulforhodamine B assay; details: COLO 205, 48 h
NCI-H460 = assay: Antiproliferative activity against human NCI-H460 cells assessed as cell growth inhibition measured after 48 hrs by sulforhodamine B assay; details: NCI-H460, 48 h
HOP-92 = assay: Antiproliferative activity against human HOP-92 cells assessed as cell growth inhibition measured after 48 hrs by sulforhodamine B assay; details: HOP-92, 48 h
SF-539 = assay: Antiproliferative activity against human SF-539 cells assessed as cell growth inhibition measured after 48 hrs by sulforhodamine B assay; details: SF-539, 48 h
SN12C = assay: Antiproliferative activity against human SN12C cells assessed as cell growth inhibition measured after 48 hrs by sulforhodamine B assay
HT-1080 = assay: Antiproliferative activity against human HT-1080 cells assessed as cell growth inhibition measured after 48 hrs by SRB assay; details: HT-1080, 48 h
HT-29 = assay: Antiproliferative activity against human HT-29 cells assessed as cell growth inhibition measured after 48 hrs by SRB assay; details: HT-29, 48 h
HCT-116 = assay: Antiproliferative activity against human HCT-116 cells assessed as cell growth inhibition measured after 48 hrs by sulforhodamine B assay; details: HCT-116, 48 h
SNB-19 = assay: Antiproliferative activity against human SNB-19 cells assessed as cell growth inhibition measured after 48 hrs by sulforhodamine B assay; details: SNB-19, 48 h
MCF7 [2] = assay: Antiproliferative activity against human MCF7 cells assessed as cell growth inhibition measured after 48 hrs in presence of uridine by SRB assay; details: MCF7, 48 h
IGROV-1 = assay: Antiproliferative activity against human IGROV-1 cells assessed as cell growth inhibition measured after 48 hrs by sulforhodamine B assay; details: IGROV-1, 48 h
OVCAR-5 = assay: Antiproliferative activity against human OVCAR-5 cells assessed as cell growth inhibition measured after 48 hrs by sulforhodamine B assay; details: OVCAR-5, 48 h
A549 = assay: Antiproliferative activity against human A549/ATCC cells assessed as cell growth inhibition measured after 48 hrs by sulforhodamine B assay; details: A549, 48 h
OVCAR-3 = assay: Antiproliferative activity against human OVCAR-3 cells assessed as cell growth inhibition measured after 48 hrs by sulforhodamine B assay; details: OVCAR-3, 48 h
PC-3 = assay: Antiproliferative activity against human PC-3 cells assessed as cell growth inhibition measured after 48 hrs by sulforhodamine B assay; details: PC-3, 48 h
MCF7 [3] = assay: Antiproliferative activity against human MCF7 cells assessed as cell growth inhibition measured after 48 hrs by SRB assay; details: MCF7, 48 h
SNB-75 = assay: Antiproliferative activity against human SNB-75 cells assessed as cell growth inhibition measured after 48 hrs by sulforhodamine B assay; details: SNB-75, 48 h
786-0 = assay: Antiproliferative activity against human 786-0 cells assessed as cell growth inhibition measured after 48 hrs by sulforhodamine B assay; details: 786-0, 48 h
NCI-H23 = assay: Antiproliferative activity against human NCI-H23 cells assessed as cell growth inhibition measured after 48 hrs by sulforhodamine B assay; details: NCI-H23, 48 h
M14 = assay: Antiproliferative activity against human M14 cells assessed as cell growth inhibition measured after 48 hrs by sulforhodamine B assay; details: M14, 48 h
OVCAR-4 = assay: Antiproliferative activity against human OVCAR-4 cells assessed as cell growth inhibition measured after 48 hrs by sulforhodamine B assay; details: OVCAR-4, 48 h
SK-OV-3 = assay: Antiproliferative activity against human SK-OV-3 cells assessed as cell growth inhibition measured after 48 hrs by sulforhodamine B assay; details: SK-OV-3, 48 h
CAKI-1 = assay: Antiproliferative activity against human CAKI-1 cells assessed as cell growth inhibition measured after 48 hrs by sulforhodamine B assay; details: CAKI-1, 48 h
MDA-MB-435 = assay: Antiproliferative activity against human MDA-MB-435 cells assessed as cell growth inhibition measured after 48 hrs by sulforhodamine B assay; details: MDA-MB-435, 48 h
OVCAR-8 = assay: Antiproliferative activity against human OVCAR-8 cells assessed as cell growth inhibition measured after 48 hrs by sulforhodamine B assay; details: OVCAR-8, 48 h
NCI-H322M = assay: Antiproliferative activity against human NCI-H322M cells assessed as cell growth inhibition measured after 48 hrs by sulforhodamine B assay
Hs-578T = assay: Antiproliferative activity against human Hs-578T cells assessed as cell growth inhibition measured after 48 hrs by sulforhodamine B assay
[4] = test system: Panel colon (Carcinoma cell lines); assay: Antiproliferative activity against human Panel colon (Carcinoma cell lines) assessed as cell growth inhibition measured after 48 hrs by SRB assay
MOLT-4 = assay: Antiproliferative activity against human MOLT-4 cells assessed as cell growth inhibition measured after 48 hrs by sulforhodamine B assay; details: MOLT-4, 48 h
M21 = assay: Antiproliferative activity against human M21 cells assessed as cell growth inhibition measured after 48 hrs by SRB assay; details: M21, 48 h

Which IC50 [1] does the source give for CCNC(=O)Nc1ccc(S(=O)(=O)Oc2ccccc2CC)cc1 here?
The IC50 was 0.81 µM.

What about the IC50 (HOP-62) of the same molecule?
The IC50 was 14.5 µM.

What about the IC50 (COLO 205) of the same molecule?
Its IC50 is 2.51 µM.

And the IC50 (NCI-H460)?
The IC50 was 0.427 µM.

And the IC50 (HOP-92)?
The IC50 was 6.61 µM.

What about the IC50 (SF-539) of the same molecule?
The IC50 was 2.14 µM.

What about the IC50 (SN12C) of the same molecule?
The IC50 was 7.24 µM.

And the IC50 (HT-1080)?
The IC50 was 0.45 µM.

What about the IC50 (HT-29; read-out: IC50) of the same molecule?
Its IC50 is 0.99 µM.

And the IC50 (HT-29; read-out: pIC50 (converted))?
Its IC50 is 1.02 µM.

And the IC50 (HCT-116)?
Its IC50 is 0.575 µM.

What about the IC50 (SNB-19) of the same molecule?
The IC50 was 3.63 µM.

What about the IC50 (MCF7 [2]) of the same molecule?
Its IC50 is 18 µM.

And the IC50 (IGROV-1)?
Its IC50 is 5.89 µM.

And the IC50 (OVCAR-5)?
The IC50 was 22.9 µM.

What about the IC50 (A549) of the same molecule?
The IC50 was 0.955 µM.

And the IC50 (OVCAR-3)?
Its IC50 is 6.61 µM.

What about the IC50 (PC-3) of the same molecule?
Its IC50 is 0.832 µM.

What about the IC50 (MCF7 [3]; read-out: IC50) of the same molecule?
The IC50 was 5.9 µM.

And the IC50 (MCF7 [3]; read-out: pIC50 (converted))?
The IC50 was 3.24 µM.

What about the IC50 (SNB-75) of the same molecule?
Its IC50 is 9.12 µM.

What about the IC50 (786-0) of the same molecule?
The IC50 was 9.12 µM.

And the IC50 (NCI-H23)?
The IC50 was 12.9 µM.

And the IC50 (M14)?
The IC50 was 4.17 µM.

And the IC50 (OVCAR-4)?
The IC50 was 22.4 µM.

What about the IC50 (SK-OV-3) of the same molecule?
The IC50 was 12.6 µM.

And the IC50 (CAKI-1)?
The IC50 was 0.759 µM.

And the IC50 (MDA-MB-435)?
Its IC50 is 4.47 µM.

And the IC50 (OVCAR-8)?
The IC50 was 0.851 µM.

And the IC50 (NCI-H322M)?
Its IC50 is 12.9 µM.

And the IC50 (Hs-578T)?
Its IC50 is 11.2 µM.

And the IC50 [4]?
The IC50 was 1.5 µM.

What about the IC50 (MOLT-4) of the same molecule?
The IC50 was 0.282 µM.

And the IC50 (M21)?
Its IC50 is 3 µM.
